Experimental data from US10144715B2, “Piperazine derivatives as liver X receptor modulators” (priority 2014, dated 2018).
Like-named read-outs stand apart in the source and are kept apart here.

What was measured:
LXR α LBD protein [1] = target: T1, LXR α LBD protein (Homo sapiens (Human), UniProt Q13133); test: Human LXRα coactivator recruitment FRET assay, agonist mode; type: biochemical
Procedure, shortened: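 Time-resolved FRET (delay 100 µs, window 200 µs) after 2 h rt incubation of compound with 10 nM (2×) GST-tagged LXRα or LXRβ LBD plus 200 nM fluorescein-SRC2-3 and 20 nM Tb-anti-GST (4×). Percent control vs concentration fit to four-parameter model; EC50 at inflection.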

[2] = target: T2, Gal4 DNA binding domain fused to the LBD of LXRβ in HEK293 cells (Homo sapiens (Human), UniProt P55055); test: cell-based
LXR β LBD protein [3] = target: T3, LXR β LBD protein (Homo sapiens (Human), UniProt P55055); test: biochemical; type: binding; conditions: read-out: LXRβ Binding Ki
Target sequence in this assay (P55055 222-460 limits assumed): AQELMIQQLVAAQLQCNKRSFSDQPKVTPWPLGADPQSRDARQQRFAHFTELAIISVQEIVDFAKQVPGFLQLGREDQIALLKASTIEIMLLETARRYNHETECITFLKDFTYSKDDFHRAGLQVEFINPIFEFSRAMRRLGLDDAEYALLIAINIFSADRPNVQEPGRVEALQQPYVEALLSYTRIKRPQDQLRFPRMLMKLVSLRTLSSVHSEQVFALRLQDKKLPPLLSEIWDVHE

LXR β LBD protein [4] = target: T3, LXR β LBD protein; test: biochemical; type: biochemical; conditions: for EC50: read-out: FRET LXRβ EC50
Target sequence in this assay (P55055 222-460): as the sequence (P55055 222-460 limits assumed) above

LXR α LBD protein [5] = target: T1, LXR α LBD protein; test: LXR α radioligand binding assay (SPA, competition with [3H]TO901317); conditions: read-out: LXRα Binding Ki
[6] = target: T4, Gal4 DNA binding domain fused to the LBD of LXRα in HEK293 cells (Homo sapiens (Human), UniProt Q13133); test: LXR luciferase transcriptional reporter gene assay, antagonist mode (200 nM T0901317), LXRα; type: cell-based; conditions: for IC50: read-out: Cell LXRα IC50
[7] = target: T2, Gal4 DNA binding domain fused to the LBD of LXRβ in HEK293 cells; test: cell-based; type: cell-based
[8] = target: T4, Gal4 DNA binding domain fused to the LBD of LXRα in HEK293 cells; test: LXR luciferase transcriptional reporter gene assay, agonist mode, LXRα; type: cell-based; conditions: for EC50: read-out: Cell LXRα EC50
LXR α LBD protein [9] = target: T1, LXR α LBD protein; conditions: antagonist mode, 250 nM T0901317, coactivator recruitment TR-FRET; for IC50: read-out: FRET LXRα IC50
Description: This assay is based on the ability of the LXR-LBDs (LXRα and LXRβ) to recruit and interact with a co-activator peptide.
Two μL of the DMSO solutions were transferred to the plate and 38 μL of 10 nM LXRα-LBD or LXRβ-LBD (2×) were added immediately to the wells. The plate was shaken for 5 min at rt on an orbital micro shaker (DPC MicroMix® 5), after which 40 μL of 200 nM fluorescein-SRC2-3 peptide and 20 nM Terbium-anti-GST-antibody (Cat# PV3550, Life Technologies, Grand Island, N.Y.) solution (4×) were added to all. The plate was sealed and shaken for 2 min at rt, and incubated at rt for 2 h without agitation. […] The delay and window times were set at 100 and 200 microseconds, respectively. […] The percent control vs. compound concentration data were fit into a four-parameter model, and EC50 values were calculated from the fit as the concentrations corresponding to the inflection points on the concentration-response curves.

[10] = antagonist mode, 200 nM T0901317, HEK293 reporter gene assay
[11] = antagonist mode, 200 nM T0901317, HEK293 reporter gene assay, read-out: Cell LXRβ IC50
[12] = Biological Test Example 3, agonist mode
[13] = Biological Test Example 2, agonist mode

T2 sequence (P55055 222-460 limits assumed): as above
T1 sequence (Q13133 209-447): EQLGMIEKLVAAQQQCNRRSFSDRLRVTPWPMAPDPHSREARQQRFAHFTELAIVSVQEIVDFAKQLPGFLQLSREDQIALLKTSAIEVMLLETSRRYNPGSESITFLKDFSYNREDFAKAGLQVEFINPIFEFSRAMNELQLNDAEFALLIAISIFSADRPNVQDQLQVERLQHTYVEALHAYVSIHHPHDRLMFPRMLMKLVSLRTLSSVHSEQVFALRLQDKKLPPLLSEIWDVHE
T4 sequence (Q13133 209-447): as above

Compound	EC50 (LXR α LBD protein [1]; agonist mode) [µM]	EC50 [2] [µM]	Ki (LXR β LBD protein [3]) [µM]	EC50 (LXR β LBD protein [4]) [µM]	Ki (LXR α LBD protein [5]) [µM]	Cell LXRα efficacy [6]	IC50 [6] [µM]	IC50 [7] [µM]	EC50 [8] [µM]	FRET LXRα efficacy (LXR α LBD protein [1]; agonist mode) [%]	Cell LXRβ efficacy ([2]; agonist mode)	FRET LXRβ efficacy (LXR β LBD protein [4]; agonist mode)	IC50 [6, 10] [µM]	Cell LXRβ efficacy [7, 10]	Cell LXRα efficacy [8]	EC50 ([8]; agonist mode) [µM]	also measured
Cc1ccc(CN2CCN(c3cccc(S(C)(=O)=O)c3)C[C@@H]2c2ccccc2)cc1 (single isomer, unassigned) [46-6]	> 50	> 20	0.063	> 50	0.519	957 (105) %	0.957	0.148	> 20								Cell LXRβ efficacy [7]: 148 (106) %
CS(=O)(=O)c1cccc(N2CCN(Cc3ccc(C(F)(F)F)c(F)c3)[C@@H](c3ccccc3)C2)c1 (single isomer, unassigned) [46-26]	2.85	0.676	0.058	0.411		7585 (36) %		6.8		59	676 (62) %	411 (73) %	7.58	6798 (54) %	1479 (62) %	1.48	
C[C@]1(c2ccccc2)CN(c2cccc(S(C)(=O)=O)c2)CCN1Cc1ccc(C(F)(F)F)c(Cl)c1 (single isomer, unassigned) [46-34]	0.862	0.587	0.032	0.257		7451 (87) %		0.688		40	587 (10) %		7.45	688 (70) %	2082 (24) %	2.08	
CS(=O)(=O)c1cccc(N2CCN(C[C@H]3CC[C@@H](C(F)(F)F)CC3)[C@@H](c3ccccc3)C2)c1 (single isomer, unassigned) [48-31]	0.401		0.005		0.042	6705 (128) %	6.71		0.254	56	35%	37%		96%	254 (61) %		EC50 ([2]; agonist mode, read-out: Cell LXRβ EC50): 0.095 µM; EC50 (LXR β LBD protein [4]; agonist mode): 0.022 µM; IC50 [7, 11]: 0.436 µM
CS(=O)(=O)c1cccc(N2CCN(C[C@@H]3CCN(CC(F)(F)F)C3)[C@@H](c3ccccc3)C2)c1 (single isomer, unassigned) [48-61]		0.467		0.112	1.42	870 (56) %		0.118					0.87	118 (72) %	2312 (23) %		EC50 (LXR α LBD protein [1]; [12]): 0.347 µM; FRET LXRα efficacy (LXR α LBD protein [1]; [12]): 26%; Cell LXRβ efficacy [2, 13]: 467 (5) %; Ki (LXR β LBD protein [3]; Biological Test Example 1): 0.417 µM; FRET LXRβ efficacy (LXR β LBD protein [4]; [12]): 112 (23) %; EC50 [8, 13]: 2.31 µM
CC(C)[C@@H]1CN(c2cccc(S(C)(=O)=O)c2)CCN1C(=O)OC(C)(C)C [1-1, tert-butyl (R)-2-isopropyl-4-(3-(methylsulfonyl)phenyl)piperazine-1-carboxylate]	0.409	0.467	0.157		1.69		> 10	2	2.78	60	467 (34) %	88%		1996 (45) %	2778 (44) %		EC50 (LXR β LBD protein [4]; agonist mode): 0.015 µM
CC(C)c1ccc(CN2CCN(c3cccc(S(C)(=O)=O)c3)C[C@@H]2c2ccccc2)cc1 [46-8, (S)-1-(4-isopropylbenzyl)-4-(3-(methylsulfonyl)phenyl)-2-phenylpiperazine]	0.468	1.36	0.227	> 50	1.72	8904 (282) %	8.9	1.42	3.2	15					3200 (22) %		Cell LXRβ efficacy [2]: 1358 (18) %; Cell LXRβ efficacy [7]: 1421 (96) %
CS(=O)(=O)c1cccc(N2CCN(Cc3ccc(C(F)(F)F)cc3)[C@@H](c3ccc(F)cc3)C2)c1 [46-24, (S)-2-(4-fluorophenyl)-4-(3-(methylsulfonyl)phenyl)-1-(4-(trifluoromethyl)benzyl)piperazine]	2.7	0.636	0.359	0.347		3139 (51) %		5.82		39	636 (27) %	347 (45) %	3.14	5823 (95) %	2711 (31) %	2.71	
CS(=O)(=O)c1ccc(F)c(N2CCN(Cc3ccc(C(F)(F)F)nc3)C(c3ccccc3)C2)c1 (centres unmarked) [46-50, 4-(2-fluoro-5-(methylsulfonyl)phenyl)-2-phenyl-1-((6-(trifluoromethyl)pyridin-3-yl)methyl)piperazine]																	FRET LXRα efficacy (LXR α LBD protein [9]): 102%
CS(=O)(=O)c1cccc(N2CCN(Cc3ccc(C(F)(F)F)nc3)C(c3cccc(Cl)c3)C2)c1 (centres unmarked) [46-55, 2-(3-chlorophenyl)-4-(3-(methylsulfonyl)phenyl)-1-((6-(trifluoromethyl)pyridin-3-yl)methyl)piperazine]	6.54									25					2773 (7) %	2.77	IC50 (LXR α LBD protein [9]): > 50 µM
Cc1cccc(C2CN(c3cccc(S(C)(=O)=O)c3)CCN2Cc2ccc(C(F)(F)F)nc2)c1 (centres unmarked) [46-62, 4-(3-(methylsulfonyl)phenyl)-2-(m-tolyl)-1-((6-(trifluoromethyl)pyridin-3-yl)methyl)piperazine]	7.77								> 20	32							IC50 (LXR α LBD protein [9]): > 50 µM
CS(=O)(=O)c1cc(N2CCN(C[C@H]3CC[C@@H](C(F)(F)F)CC3)[C@@H](c3ccc(F)cc3)C2)ccc1F [48-48, (S)-4-(4-fluoro-3-(methylsulfonyl)phenyl)-2-(4-fluorophenyl)-1-(((1s,4R)-4-(trifluoromethyl)cyclohexyl)methyl)piperazine]					0.156		> 10		0.46					52%	460 (53) %		EC50 (LXR α LBD protein [1]; [12]): 1.32 µM; FRET LXRα efficacy (LXR α LBD protein [1]; [12]): 42%; Cell LXRβ efficacy [2, 13]: 31%; EC50 ([2]; Biological Test Example 2, agonist mode, read-out: Cell LXRβ EC50): 0.112 µM; Ki (LXR β LBD protein [3]; Biological Test Example 1): 0.023 µM; FRET LXRβ efficacy (LXR β LBD protein [4]; [12]): 40%; EC50 (LXR β LBD protein [4]; [12]): 0.142 µM; IC50 [7, 11]: 2.69 µM
